Values joined by “and” are separate entries in the source; they are usually repeats but may differ in a detail not shown here. Equal values may be shown once.
What was measured:
blood clot = assay: Thrombolysis assay (clot lysis); set-up: species or system human; conditions: sample solution in DMSO, 3 h at 37 °C, ABTS positive control, triplicate
Method: The thrombolytic assay was performedaccording tomethodologyin the literature. A blood sample (3 mL) was collected from a healthy human donor, and 500 µL was transferred to pre-weighed, clean Eppendorf tubes. The tubes containing the blood wereweighed again andincubatedfor 1 h at 37 °C to induce clot formation. The serum was then discarded, and the tube containing theclot was weighed. An amount of 40 µL of sample solution in DMSO was added to the clot.The tubes were again incubated for 3 h at 37 °C, and the lysis resultswere observed. ABTS was used as a positivecontrol, while DMSO was used as a negative control in this assay. The experiment was performed in triplicate, and the lysis percentage was calculated using the formula below: % Age clot lysis =Initial clot weight−Final clot weight ×100/Initial clot weight

[1] = system: A549 lung cancer cell line; assay: MTT assay, cell viability; format: cell-based, human; conditions: A549, 48 h, mean ± SD in triplicate
Method: The A549 cell line was treated with synthesized compounds in a final concentration of DMSO (dimethyl sulfoxide) of less than 1%.
The cytotoxic therapeutic potential of synthesized structural hybrids was evaluated usinga standard MTT (3-(4,5-dimethylthiazol-2-yl)-2,5-diphenyltetrazolium bromide) assay. The cells of theA549 cell line were grown, overnight, in a microculture of 96-well plates. […] Following this, 150 μL of control DMSO was added to formazan crystals.The percentage of cell viability was determined viaquantified absorbance in a microplate readerat 490 nm wavelength.

Hemolysis assay = format: cell-based; conditions: human, red blood cells (washed RBC pellet); read-out: Percentage Hemolysis ± SD
Method: A fresh blood sample (5 mL) from a healthy donor was collected in an EDTA tube. The blood was transferred to microcentrifuge tubes and centrifugedfor 5 min at 1000 rpm to obtain the red blood cells (RBCs). The supernatant was then discarded, and the RBCpellet was washed three times with phosphate-buffered saline (PBS). The RBC pellet was collected after washing and 20µL of sample solution in DMSO was added. The tubes were incubated at 37 °C for 60 min. Having been removed from the incubator, the tubes were recentrifuged at 13,000 rpm for 5 min. The supernatant was collected and diluted with chilled PBS solution. Absorbance was recordedat 517 nm. […] The experiment wasconducted in triplicate, and the RBC lysis percentage was calculated using this formula [40]: % Age hemolysis =Absorbance of sample−Absorbance of negative control ×100/Absorbance of positive control

Row | SMILES | Percentage Thrombolysis ± SD (blood clot) | IC50 [1] [µM] | melting point [°C] | Percentage Cell viability A549 (Lung Cancer) ± SD [1] [%] | hemolysis at 60 min (Hemolysis assay) [%] | IC50 ([1]; Homo sapiens) [µM]
1 | CCn1c(=NN=c2sc3cc(S(=O)(=O)O)ccc3n2CC)sc2cc(S(=O)(=O)O)ccc21 [ABTS, reference compound] | 86% |  |  |  |  | 
2 | N.N.[Cl][Pt][Cl] [Cisplatin, cisplatin, reference compound] |  | 3.88 ± 0.76 |  |  |  | 
3 | O=C(CSc1nnc(-c2cc3ccccc3o2)o1)Nc1ccccc1 [Compound 5a] | 56.8% and 56.8 ± 0.081% |  | 212 to 214 | 64.1 ± 1.72 | 3.7 ± 0.008 | 
4 | O=C(CSc1nnc(-c2cc3ccccc3o2)o1)N1CCOCC1 [Compound 5b] | 50.7% and 50.7 ± 0.081% |  | 181 to 182 | 45.99 ± 4.22 | 22.12 ± 0.008 | 
5 | COc1ccccc1NC(=O)CSc1nnc(-c2cc3ccccc3o2)o1 [Compound 5d] | 53.5% and 53.5 ± 0.081% |  | 176 to 178 | 27.49 ± 1.90 | 5.02 ± 0.008 | 6.3 ± 0.7
6 | CCOc1ccc(NC(=O)CSc2nnc(-c3cc4ccccc4o3)o2)cc1 [Compound 5e] | 52.4% and 52.4 ± 0.081% |  | 154 to 156 | 34.47 ± 2.19 | 0.5 ± 0.008 | 17.9 ± 0.46
7 | CCN(CC)C(=O)CSc1nnc(-c2cc3ccccc3o2)o1 [Compound 5g] | 48.3% and 48.3 ± 0.081% |  | 96 to 97 | 41.45 ± 4.10 | 4.86 ± 0.047 | 
8 | O=C(CSc1nnc(-c2cc3ccccc3o2)n1-c1ccccc1)N1CCOCC1 [Compound 7b] | 52.5% and 52.5 ± 0.081% |  | 173 to 175 | 57.62 ± 4.94 | 0.1 ± 0.004 | 
9 | Cc1ccc(NC(=O)CSc2nnc(-c3cc4ccccc4o3)n2-c2ccccc2)c(C)c1 [Compound 7f] | 61.4% and 61.4 ± 0.081% |  | 226 to 227 | 99.1 ± 5.04 | 15.7 ± 0.081 | 
10 | O=C(CSc1nnc(-c2cc3ccccc3o2)n1-c1ccccc1)Nc1ccc(Cl)cc1 [Compound 7g] | 49.06% and 49.06 ± 0.047% |  | 229 to 230 | 36.26 ± 0.41 | 23.4 ± 0.081 | 19.8 ± 0.54
11 | O=C(CSc1nnc(-c2cc3ccccc3o2)n1-c1ccccc1)Nc1ccc(Cl)cc1Cl [Compound 7h] | 48.1% and 48.1 ± 0.081% |  | 217 to 219 | 29.29 ± 3.98 | 14.8 ± 0.081 | 10.9 ± 0.94
12 | C[C@@H](Oc1cc(-c2cnn(C3CCNCC3)c2)cnc1N)c1c(Cl)ccc(F)c1Cl [Crizotinib, crizotinib, reference compound] |  |  |  |  |  | 8.54 ± 0.84

— publication PMC8838991, “Exploring the Synergistic Anticancer Potential of Benzofuran–Oxadiazoles and Triazoles: Improved Ultrasound- and Microwave-Assisted Synthesis, Molecular Docking, Hemolytic, Thrombolytic and Anticancer Evaluation of Furan-Based Molecules” (Molecules, 2022)
